“And” between values parts separate entries of the source, which are not always exact repeats. Equal values may be shown once. Read-outs that look alike come from different tables or passages of the source.

Here are results for one compound from article PMC7316778 (Nature Communications, 2020).

Some targets named below: MAPK1 (ERK2) (Homo sapiens, UniProt P28482); SGK2 (Homo sapiens, UniProt Q9HBY8); STK4 (MST1) (Homo sapiens, UniProt Q13043).
What all share (assay): SelectScreen kinase assay
A further assay addresses CDC42 BPB (MRCKB) (Homo sapiens, UniProt Q9Y5S2). As to conditions: 1 h, 1 μM WEL028, 1 h preincubation.
The next assay concerns the target ERN1 (Homo sapiens, UniProt O75460). Conditions: for Inhibition at 1 µM (%): ERN1, LanthaScreen Binding. On the technique in general: Time-resolved FRET reads energy transfer from a long-lived donor to a nearby acceptor.
For another assay, the target named is T1, MAP2K5 (MEK5) (Homo sapiens, UniProt Q13163).
T1 sequence (Q13163 1-448): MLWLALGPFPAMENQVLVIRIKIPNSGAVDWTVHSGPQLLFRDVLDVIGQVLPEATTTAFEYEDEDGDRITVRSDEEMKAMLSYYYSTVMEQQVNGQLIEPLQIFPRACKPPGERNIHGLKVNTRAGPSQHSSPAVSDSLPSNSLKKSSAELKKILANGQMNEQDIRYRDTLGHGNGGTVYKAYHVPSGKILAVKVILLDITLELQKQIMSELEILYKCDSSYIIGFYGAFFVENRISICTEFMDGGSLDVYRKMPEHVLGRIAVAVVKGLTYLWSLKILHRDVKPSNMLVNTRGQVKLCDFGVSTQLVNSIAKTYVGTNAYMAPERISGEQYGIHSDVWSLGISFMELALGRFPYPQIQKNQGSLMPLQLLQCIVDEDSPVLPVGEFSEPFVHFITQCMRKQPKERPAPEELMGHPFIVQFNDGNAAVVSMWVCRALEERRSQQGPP

The target of the next assay is T2, TTK (Homo sapiens, UniProt P33981).
T2 sequence (P33981 1-857): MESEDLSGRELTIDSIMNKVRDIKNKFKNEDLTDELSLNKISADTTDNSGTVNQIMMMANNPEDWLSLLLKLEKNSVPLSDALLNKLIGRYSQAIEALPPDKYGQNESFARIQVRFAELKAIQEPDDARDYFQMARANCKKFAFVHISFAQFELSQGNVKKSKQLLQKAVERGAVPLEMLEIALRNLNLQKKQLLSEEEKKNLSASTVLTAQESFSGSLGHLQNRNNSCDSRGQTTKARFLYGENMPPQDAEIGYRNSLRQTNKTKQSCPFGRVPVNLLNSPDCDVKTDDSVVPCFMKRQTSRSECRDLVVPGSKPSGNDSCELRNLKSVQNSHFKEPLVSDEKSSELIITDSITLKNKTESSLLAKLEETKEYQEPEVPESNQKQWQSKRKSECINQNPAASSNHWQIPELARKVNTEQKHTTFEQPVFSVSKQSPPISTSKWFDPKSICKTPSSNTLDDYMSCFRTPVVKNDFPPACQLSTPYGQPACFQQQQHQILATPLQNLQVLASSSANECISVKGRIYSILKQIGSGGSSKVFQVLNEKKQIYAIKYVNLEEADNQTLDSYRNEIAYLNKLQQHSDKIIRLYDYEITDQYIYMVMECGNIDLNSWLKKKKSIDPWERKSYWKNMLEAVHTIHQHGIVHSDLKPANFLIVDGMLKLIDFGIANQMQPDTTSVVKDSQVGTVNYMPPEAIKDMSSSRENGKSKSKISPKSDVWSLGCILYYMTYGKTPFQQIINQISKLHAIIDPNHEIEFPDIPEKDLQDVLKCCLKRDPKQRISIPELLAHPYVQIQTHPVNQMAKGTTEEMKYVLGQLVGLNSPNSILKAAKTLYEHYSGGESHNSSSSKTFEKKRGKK

The target of the next assay is T3, ULK3 (Homo sapiens, UniProt Q6PHR2).
T3 sequence (Q6PHR2 1-472): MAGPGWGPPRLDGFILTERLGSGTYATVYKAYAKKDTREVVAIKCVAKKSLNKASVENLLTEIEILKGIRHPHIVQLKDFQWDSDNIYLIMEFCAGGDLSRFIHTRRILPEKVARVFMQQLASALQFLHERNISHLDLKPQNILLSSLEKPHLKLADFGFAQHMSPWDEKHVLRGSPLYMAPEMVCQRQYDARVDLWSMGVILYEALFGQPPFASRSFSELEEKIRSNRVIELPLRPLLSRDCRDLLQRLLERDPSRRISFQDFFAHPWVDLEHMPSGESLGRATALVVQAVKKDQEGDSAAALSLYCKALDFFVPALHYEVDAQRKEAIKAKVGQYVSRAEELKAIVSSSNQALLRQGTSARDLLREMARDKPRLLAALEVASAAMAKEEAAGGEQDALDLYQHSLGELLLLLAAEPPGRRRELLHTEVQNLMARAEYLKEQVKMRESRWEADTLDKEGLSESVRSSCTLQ

In a further assay the target is ZAP70 (Homo sapiens, UniProt P43403). Conditions: 1 h, 1 μM WEL028, 1 h preincubation.
ZAP70, sequence (P43403 whole entry): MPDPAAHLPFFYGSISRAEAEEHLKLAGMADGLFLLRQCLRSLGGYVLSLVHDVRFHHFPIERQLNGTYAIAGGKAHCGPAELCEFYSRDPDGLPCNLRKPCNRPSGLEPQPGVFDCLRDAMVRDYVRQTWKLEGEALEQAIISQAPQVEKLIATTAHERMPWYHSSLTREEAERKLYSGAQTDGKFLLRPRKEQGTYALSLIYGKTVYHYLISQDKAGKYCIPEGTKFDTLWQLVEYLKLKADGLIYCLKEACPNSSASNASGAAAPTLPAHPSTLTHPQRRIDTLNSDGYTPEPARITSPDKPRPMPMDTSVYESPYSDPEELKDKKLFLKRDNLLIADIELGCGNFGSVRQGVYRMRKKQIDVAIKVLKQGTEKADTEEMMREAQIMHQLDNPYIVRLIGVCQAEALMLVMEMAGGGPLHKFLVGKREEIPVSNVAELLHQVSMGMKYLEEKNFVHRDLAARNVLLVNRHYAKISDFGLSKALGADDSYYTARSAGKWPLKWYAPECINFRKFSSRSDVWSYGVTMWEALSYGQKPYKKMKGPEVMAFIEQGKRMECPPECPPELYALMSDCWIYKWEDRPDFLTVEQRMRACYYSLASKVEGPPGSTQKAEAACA
Where [1] appears, read: 1 h, 1 μM WEL028, 1 h preincubation.
Where [2] appears, read: 1 µM, LanthaScreen Binding, listed as WEL028, 1 µM.
The mark [3] stands for this setting: read-out: Inhibition at 1 µM (%), 1 µM, LanthaScreen Binding.

ERN1, sequence (O75460 19-977): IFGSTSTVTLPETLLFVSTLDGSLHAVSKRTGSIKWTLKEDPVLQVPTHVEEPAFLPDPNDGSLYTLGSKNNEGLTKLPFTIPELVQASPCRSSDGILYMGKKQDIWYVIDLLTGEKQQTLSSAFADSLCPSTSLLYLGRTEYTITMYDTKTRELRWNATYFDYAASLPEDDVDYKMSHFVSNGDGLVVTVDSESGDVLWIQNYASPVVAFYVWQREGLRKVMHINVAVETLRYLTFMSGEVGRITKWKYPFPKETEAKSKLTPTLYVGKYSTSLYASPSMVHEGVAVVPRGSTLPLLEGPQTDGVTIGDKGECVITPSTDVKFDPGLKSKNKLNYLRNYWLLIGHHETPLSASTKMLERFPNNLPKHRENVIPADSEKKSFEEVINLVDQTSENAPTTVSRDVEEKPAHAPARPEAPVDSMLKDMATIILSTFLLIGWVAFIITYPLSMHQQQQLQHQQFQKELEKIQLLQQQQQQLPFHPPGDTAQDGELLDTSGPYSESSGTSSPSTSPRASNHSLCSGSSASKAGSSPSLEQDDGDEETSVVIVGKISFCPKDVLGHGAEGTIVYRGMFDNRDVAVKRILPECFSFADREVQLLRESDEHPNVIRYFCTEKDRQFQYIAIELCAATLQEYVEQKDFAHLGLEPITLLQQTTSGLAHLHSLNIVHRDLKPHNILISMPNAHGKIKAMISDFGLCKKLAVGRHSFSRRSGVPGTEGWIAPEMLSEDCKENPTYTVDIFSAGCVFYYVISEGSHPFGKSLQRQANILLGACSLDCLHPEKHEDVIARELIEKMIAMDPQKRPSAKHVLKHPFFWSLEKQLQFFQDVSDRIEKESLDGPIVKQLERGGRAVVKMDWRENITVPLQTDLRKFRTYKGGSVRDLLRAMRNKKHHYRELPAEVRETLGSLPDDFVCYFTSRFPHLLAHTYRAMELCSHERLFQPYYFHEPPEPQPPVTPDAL
SGK2, sequence (Q9HBY8 whole entry): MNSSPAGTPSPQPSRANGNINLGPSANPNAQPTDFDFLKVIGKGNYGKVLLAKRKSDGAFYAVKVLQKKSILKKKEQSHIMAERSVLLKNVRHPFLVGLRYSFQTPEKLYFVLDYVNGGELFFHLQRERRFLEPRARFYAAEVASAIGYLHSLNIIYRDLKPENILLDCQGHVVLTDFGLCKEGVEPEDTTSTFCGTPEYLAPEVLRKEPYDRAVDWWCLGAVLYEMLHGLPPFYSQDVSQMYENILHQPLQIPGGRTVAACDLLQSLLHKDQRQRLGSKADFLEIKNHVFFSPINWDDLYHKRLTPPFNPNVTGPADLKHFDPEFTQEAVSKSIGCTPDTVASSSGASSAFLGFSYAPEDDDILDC
STK4 (MST1), sequence (Q13043 whole entry): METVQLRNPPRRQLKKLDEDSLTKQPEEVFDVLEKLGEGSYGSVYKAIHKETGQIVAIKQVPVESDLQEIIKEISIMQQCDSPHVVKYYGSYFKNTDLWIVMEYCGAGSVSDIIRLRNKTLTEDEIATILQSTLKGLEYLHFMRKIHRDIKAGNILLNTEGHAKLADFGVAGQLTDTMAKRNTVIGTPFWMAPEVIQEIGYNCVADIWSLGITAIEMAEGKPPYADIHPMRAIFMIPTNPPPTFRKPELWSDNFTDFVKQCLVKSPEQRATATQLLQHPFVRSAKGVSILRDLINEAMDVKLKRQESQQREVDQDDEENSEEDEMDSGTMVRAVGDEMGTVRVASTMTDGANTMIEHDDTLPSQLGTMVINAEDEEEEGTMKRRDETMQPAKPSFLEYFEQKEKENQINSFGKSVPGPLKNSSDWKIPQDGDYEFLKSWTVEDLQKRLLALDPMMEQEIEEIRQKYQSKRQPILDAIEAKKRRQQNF
MAPK1 (ERK2), sequence (P28482 whole entry): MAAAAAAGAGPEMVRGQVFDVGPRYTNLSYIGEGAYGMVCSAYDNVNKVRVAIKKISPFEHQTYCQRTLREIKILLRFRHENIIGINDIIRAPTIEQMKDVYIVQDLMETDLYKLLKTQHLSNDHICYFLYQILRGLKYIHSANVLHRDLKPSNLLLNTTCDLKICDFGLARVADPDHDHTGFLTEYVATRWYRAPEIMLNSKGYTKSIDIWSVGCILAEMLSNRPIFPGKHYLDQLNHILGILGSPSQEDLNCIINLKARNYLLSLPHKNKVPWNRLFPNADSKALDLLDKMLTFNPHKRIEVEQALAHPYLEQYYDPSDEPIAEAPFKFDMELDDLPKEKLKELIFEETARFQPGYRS
CDC42 BPB (MRCKB), sequence (Q9Y5S2 whole entry): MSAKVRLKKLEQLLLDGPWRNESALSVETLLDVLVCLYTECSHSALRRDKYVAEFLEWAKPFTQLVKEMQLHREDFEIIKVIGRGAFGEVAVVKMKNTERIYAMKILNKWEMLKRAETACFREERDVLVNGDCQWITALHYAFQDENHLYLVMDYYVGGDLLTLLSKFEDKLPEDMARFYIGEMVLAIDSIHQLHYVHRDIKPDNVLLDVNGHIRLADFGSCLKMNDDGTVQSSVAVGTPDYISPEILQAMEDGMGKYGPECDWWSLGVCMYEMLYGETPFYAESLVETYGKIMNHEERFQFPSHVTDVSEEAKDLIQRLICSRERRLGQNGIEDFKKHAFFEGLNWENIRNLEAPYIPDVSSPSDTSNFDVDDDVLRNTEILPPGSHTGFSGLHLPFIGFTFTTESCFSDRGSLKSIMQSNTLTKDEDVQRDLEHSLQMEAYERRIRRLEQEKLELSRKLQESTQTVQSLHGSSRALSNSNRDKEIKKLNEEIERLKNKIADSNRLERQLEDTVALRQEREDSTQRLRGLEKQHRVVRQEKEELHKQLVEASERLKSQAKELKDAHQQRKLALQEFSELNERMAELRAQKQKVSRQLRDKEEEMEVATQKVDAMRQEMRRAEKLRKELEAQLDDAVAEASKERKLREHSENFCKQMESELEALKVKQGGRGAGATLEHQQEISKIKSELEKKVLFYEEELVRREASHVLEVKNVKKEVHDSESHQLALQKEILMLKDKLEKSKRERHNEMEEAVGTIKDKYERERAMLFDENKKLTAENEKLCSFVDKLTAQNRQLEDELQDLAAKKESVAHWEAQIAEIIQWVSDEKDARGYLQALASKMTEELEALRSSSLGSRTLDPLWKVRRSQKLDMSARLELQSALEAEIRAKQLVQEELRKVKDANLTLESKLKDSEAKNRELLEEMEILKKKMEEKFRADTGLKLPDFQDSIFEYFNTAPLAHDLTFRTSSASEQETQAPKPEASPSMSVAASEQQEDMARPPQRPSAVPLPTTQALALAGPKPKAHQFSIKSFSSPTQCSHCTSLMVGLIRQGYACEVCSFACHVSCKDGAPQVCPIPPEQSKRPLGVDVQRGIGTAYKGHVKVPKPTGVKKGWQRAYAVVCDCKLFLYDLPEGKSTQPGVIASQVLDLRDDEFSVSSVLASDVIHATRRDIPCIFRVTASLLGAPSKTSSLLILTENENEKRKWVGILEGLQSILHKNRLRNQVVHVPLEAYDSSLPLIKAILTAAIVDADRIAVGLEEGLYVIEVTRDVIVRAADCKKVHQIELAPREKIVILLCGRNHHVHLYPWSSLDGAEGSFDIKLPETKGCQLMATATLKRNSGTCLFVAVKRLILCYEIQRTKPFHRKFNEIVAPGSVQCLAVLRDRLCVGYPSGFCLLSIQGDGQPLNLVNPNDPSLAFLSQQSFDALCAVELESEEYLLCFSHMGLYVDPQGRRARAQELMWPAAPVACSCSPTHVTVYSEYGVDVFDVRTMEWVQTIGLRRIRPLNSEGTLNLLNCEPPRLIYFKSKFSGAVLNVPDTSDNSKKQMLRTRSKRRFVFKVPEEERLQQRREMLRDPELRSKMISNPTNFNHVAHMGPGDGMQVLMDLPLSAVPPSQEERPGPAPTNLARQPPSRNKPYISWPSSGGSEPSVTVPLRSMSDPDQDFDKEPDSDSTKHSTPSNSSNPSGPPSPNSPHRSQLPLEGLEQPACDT
Method for CDC42 BPB (MRCKB): (§1) Selectivity profiling assays were performed by the Invitrogen SelectScreen™ Services. […] The concentration of ATP was selected to be equal to the KM, unless indicated otherwise.
Method for ERN1: as §1
Method for MAP2K5 (MEK5): as §1
Method for MAPK1 (ERK2): as §1
Method for SGK2: as §1
Method for STK4 (MST1): as §1
Method for TTK: as §1
Method for ULK3: as §1
Method for ZAP70: as §1

A word on the inhibition: it is the change of the read-out against control, counted positive when it falls. As usually defined, the Inhibition is the change of the read-out against control, counted positive when it falls. A word on the IC50: it is the point on the concentration scale where inhibition reaches its midpoint. In the case of `C#CCOc1ccc(Nc2ncc(Cl)c(Nc3ccccc3NC(=O)C=C)n2)c(OC)c1` [Compound 6], the inhibition at 1 µM on CDC42 BPB (MRCKB) came to 6%; at ERN1 (setting [1]) it was 8%; against MAP2K5 (MEK5) (setting [1]) it was 53%; at MAP2K5 (MEK5) (read-out: Inhibition at 1 µM (%), MAP2K5 (MEK5), 1 µM, LanthaScreen Binding), 53%; against MAPK1 (ERK2) (1 h), 26%; at MAPK1 (ERK2) (read-out: Inhibition at 1 µM (%)) it was 26%. The inhibition at 1 µM was 2% at SGK2 (setting [1]); 77% against TTK (setting [1]); 77% on TTK (setting [3]); 25% on ULK3 (setting [3]); 2% at ZAP70. Besides, the “Inhibition at 1 µM (%)” value on ERN1 was 13%; at ERN1 (listed as WEL028, 1 µM), 4%; on MAP2K5 (MEK5) (MAP2K5 (MEK5), 1 µM, LanthaScreen Binding, listed as WEL028, 1 µM), 52%; at SGK2 (1 µM, ZLYTE, ATP Km app, listed as WEL028, 1 µM), 4% and -1%; at STK4 (MST1) (1 µM, ZLYTE, ATP Km app), 11%; at TTK (setting [2]) it was 76%. Moreover, the “Inhibition at 1 µM (%)” value on ULK3 (setting [2]) was found to be 27%. The “Inhibition (%)” value was found to be 3% on STK4 (MST1) (1 μM WEL028, 1 h preincubation) and 26% at ULK3 (1 μM WEL028, 1 h preincubation). Moreover, the IC50 on TTK is 631 nM. Besides, the Apparent fold selectivity at TTK (IC50 on that kinase divided by IC50 on FES^S700C) is 152 fold.
